Data on five compounds can be found in paper PMC7700746 (Bioorganic & medicinal chemistry letters, 2020).

Molecules are shown by their SMILES.

In one series the target is α4β1 integrin (Homo sapiens, UniProt P05556+P13612). The following applies: cited from earlier work.
The test system of another series is Caco-2 cell. Kind of series: Caco-2 cell permeability assay. It counts as in vitro ADME.
A further series deals with αvβ3 integrin (Homo sapiens, UniProt P05106+P06756). Kind of series: Cell adhesion assay, SW480 transfected with human β3 adhering to fibrinogen. It counts as cell-based.
A further series has as its target αvβ1 integrin (UniProt G3HZ55+P06756). The series is described as follows: Cell adhesion assay, CHOαv adhering to fibronectin. It counts as cell-based.
The next series in a line: Solubility. It counts as physicochemical.
A further series concerns the target α5β1 integrin (Homo sapiens, UniProt P05556+P08648). The series is described as follows: Cell adhesion assay, SW480 plated on fibronectin. It counts as cell-based. The following applies: for improvement of potency against α5β1 integrin: cell adhesion, versus alkyl-linker compounds.

Sequence of αvβ3 integrin (P06756 31-889 limits assumed): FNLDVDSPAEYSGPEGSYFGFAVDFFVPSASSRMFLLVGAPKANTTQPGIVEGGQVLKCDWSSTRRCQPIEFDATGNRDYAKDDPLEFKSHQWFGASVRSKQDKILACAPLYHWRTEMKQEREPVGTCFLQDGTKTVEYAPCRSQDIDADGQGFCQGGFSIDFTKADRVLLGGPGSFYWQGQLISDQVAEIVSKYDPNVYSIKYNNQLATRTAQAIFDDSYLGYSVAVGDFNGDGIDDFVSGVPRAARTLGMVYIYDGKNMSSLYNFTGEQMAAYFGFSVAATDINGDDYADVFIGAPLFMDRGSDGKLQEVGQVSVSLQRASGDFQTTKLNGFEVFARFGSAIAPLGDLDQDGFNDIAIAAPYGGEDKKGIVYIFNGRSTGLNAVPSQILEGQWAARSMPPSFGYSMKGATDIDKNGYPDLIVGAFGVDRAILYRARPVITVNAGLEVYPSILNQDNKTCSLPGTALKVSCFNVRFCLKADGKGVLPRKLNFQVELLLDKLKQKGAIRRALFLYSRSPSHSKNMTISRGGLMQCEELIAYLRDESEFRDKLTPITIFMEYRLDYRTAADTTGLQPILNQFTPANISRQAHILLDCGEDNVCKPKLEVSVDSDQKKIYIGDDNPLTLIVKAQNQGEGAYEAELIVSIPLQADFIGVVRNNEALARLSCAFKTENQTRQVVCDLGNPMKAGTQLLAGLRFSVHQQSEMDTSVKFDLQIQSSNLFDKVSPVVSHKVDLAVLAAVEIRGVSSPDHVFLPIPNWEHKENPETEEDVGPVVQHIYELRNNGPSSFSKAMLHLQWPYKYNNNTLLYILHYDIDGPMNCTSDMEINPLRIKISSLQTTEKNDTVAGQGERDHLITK
Sequence of αvβ3 integrin (P06756 891-1048 partner limits assumed): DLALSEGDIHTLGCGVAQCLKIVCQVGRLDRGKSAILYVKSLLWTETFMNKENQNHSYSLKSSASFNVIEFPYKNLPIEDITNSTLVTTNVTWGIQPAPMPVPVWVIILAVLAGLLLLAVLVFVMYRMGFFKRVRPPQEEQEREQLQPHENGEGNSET
Sequence of αvβ3 integrin (P05106 27-788): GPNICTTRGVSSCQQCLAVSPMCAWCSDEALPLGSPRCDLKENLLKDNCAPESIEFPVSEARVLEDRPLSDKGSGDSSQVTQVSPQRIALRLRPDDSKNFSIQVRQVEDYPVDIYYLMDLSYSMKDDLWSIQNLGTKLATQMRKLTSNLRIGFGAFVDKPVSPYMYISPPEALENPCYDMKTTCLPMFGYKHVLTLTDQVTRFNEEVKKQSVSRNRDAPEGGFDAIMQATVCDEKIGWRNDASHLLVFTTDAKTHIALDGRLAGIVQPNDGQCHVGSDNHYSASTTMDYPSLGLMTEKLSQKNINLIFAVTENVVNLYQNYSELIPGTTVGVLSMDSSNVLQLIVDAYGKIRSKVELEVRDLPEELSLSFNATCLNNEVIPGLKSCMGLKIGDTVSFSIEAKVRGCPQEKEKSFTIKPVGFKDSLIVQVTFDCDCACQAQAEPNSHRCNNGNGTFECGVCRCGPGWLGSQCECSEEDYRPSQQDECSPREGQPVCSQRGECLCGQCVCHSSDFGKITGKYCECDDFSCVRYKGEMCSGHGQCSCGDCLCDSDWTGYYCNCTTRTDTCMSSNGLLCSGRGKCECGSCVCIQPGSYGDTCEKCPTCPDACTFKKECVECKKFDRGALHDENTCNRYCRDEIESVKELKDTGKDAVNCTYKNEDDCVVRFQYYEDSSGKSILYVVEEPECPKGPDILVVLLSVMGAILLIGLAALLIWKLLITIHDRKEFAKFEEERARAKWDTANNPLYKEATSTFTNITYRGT
Sequence of α5β1 integrin (P08648 42-894 limits assumed): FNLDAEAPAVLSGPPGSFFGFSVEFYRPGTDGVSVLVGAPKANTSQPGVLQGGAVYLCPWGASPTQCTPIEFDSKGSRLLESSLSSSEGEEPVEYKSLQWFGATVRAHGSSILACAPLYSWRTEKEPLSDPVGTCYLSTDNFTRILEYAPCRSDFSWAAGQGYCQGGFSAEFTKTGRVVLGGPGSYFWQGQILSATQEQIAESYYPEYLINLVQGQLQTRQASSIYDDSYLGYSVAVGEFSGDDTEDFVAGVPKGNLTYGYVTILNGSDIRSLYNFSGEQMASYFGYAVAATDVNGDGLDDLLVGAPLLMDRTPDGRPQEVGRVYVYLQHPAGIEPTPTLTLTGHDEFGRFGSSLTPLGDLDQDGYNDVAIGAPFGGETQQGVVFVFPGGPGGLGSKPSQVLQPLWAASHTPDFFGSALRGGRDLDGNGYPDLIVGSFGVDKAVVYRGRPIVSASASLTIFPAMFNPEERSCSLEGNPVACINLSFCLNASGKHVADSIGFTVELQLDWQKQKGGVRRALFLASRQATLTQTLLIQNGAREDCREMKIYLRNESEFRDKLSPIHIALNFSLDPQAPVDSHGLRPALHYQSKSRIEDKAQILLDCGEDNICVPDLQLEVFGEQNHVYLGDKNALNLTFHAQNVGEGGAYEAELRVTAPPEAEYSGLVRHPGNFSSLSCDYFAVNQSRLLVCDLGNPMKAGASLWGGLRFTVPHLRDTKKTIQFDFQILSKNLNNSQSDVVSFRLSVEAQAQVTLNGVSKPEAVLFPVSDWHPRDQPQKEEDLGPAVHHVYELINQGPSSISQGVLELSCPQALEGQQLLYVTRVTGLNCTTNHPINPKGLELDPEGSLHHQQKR
Sequence of α5β1 integrin (P08648 895-1049 partner limits assumed): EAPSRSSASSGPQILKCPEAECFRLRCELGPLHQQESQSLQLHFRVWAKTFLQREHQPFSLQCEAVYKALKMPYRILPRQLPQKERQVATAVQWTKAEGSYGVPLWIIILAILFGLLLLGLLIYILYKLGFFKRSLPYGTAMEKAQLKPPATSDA
Sequence of α5β1 integrin (P05556 21-798): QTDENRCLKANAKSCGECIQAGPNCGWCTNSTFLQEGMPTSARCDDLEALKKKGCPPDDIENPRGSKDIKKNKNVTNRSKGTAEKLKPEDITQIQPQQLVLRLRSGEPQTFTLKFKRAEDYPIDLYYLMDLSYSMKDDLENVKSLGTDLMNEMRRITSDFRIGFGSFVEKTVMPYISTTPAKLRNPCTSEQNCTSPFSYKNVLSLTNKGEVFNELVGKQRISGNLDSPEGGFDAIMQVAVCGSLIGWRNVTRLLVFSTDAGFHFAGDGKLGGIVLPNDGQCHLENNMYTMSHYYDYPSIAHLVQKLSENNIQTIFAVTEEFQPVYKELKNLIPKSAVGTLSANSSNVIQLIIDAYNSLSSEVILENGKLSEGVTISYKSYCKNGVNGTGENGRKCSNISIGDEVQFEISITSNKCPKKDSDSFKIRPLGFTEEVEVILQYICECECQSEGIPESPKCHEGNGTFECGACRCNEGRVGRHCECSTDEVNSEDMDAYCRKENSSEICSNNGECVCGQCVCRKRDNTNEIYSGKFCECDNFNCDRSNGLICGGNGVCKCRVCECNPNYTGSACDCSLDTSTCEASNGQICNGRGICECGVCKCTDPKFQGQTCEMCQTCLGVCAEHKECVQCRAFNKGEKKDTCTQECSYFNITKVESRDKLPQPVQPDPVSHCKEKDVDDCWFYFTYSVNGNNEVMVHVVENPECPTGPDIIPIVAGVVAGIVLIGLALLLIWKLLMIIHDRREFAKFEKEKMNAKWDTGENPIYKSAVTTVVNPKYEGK
Sequence of αvβ1 integrin (P06756 31-889 limits assumed): as the sequence (P06756 31-889 limits assumed) above
Sequence of αvβ1 integrin (P06756 891-1048 limits assumed): as the sequence (P06756 891-1048 partner limits assumed) above
Sequence of αvβ1 integrin (G3HZ55 21-798): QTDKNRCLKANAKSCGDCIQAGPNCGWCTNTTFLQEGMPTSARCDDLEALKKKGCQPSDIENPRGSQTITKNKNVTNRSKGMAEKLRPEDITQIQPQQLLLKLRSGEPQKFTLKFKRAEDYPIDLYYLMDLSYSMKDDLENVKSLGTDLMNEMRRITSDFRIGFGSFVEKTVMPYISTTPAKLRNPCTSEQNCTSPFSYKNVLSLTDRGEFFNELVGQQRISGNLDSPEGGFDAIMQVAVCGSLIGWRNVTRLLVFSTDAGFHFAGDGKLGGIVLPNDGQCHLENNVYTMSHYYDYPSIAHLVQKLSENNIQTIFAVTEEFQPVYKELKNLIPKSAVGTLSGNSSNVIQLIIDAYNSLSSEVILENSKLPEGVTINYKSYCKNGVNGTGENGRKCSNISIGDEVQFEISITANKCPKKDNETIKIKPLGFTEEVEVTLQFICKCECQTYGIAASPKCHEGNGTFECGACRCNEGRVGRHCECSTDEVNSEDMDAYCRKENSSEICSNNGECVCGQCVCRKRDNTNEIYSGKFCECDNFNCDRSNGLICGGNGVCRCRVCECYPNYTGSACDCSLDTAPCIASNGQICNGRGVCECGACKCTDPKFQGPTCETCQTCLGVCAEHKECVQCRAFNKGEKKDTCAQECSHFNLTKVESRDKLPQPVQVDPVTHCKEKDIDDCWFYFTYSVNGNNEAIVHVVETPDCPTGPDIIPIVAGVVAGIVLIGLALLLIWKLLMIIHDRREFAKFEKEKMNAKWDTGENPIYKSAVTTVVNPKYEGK

For `N=C(N)NCCCCC(=O)Nc1ccc(C[C@H](NC(=O)[C@@H]2CCCN2S(=O)(=O)c2ccccc2)C(=O)O)cc1` [Compound 4], the “selectivity against α4β1 integrin (in words)” value at α4β1 integrin is given as “marginal selectivity”.

`N=C(N)Nc1cc(NC(=O)CCCNC(=O)C23CC4CC(CC(C4)C2)C3)cc(C(=O)NCC(=O)NC[C@H](NC(=O)[C@@H]2CCCN2S(=O)(=O)c2ccccc2)C(=O)O)c1` [Compound 15]: in the series on Caco-2 cell, the “permeability in Caco-2 cell assay (in words)” value is reported as “poor permeability”. The “selectivity against αvβ3 integrin in cell adhesion assay (in words)” value (“selectivity against αvβ3 integrin” below) on αvβ3 integrin is recorded as “great selectivity”. The “potency against αvβ1 integrin in cell adhesion assay (in words)” value on αvβ1 integrin is given as “sub-nanomolar potency”. The “solubility (in words)” value in the series “Solubility” was “limited solubility”. Also, the “potency against α5β1 integrin in cell adhesion assay (in words)” value on α5β1 integrin was “excellent nanomolar potency”.

With `N=C(N)Nc1cccc(C(=O)NNC(=O)NC[C@H](NC(=O)[C@@H]2CCCN2S(=O)(=O)c2ccccc2)C(=O)O)c1` [Compound 12], the “selectivity against αvβ3 integrin” value at αvβ3 integrin is recorded as “not still satisfactory”. Further, at α5β1 integrin, the “improvement of potency against α5β1 integrin” value is recorded as “more than 10 fold”.

For `N=C(N)NCCCCCNC(=O)NC[C@H](NC(=O)[C@@H]1CCCN1S(=O)(=O)c1ccccc1)C(=O)O` [Compound 5], on αvβ3 integrin, the “selectivity against αvβ3 integrin” value is on record as “excellent selectivity”. The “potency against αvβ1 integrin in cell adhesion assay (in words)” value on αvβ1 integrin is “sub-nanomolar potency”. Also, at α5β1 integrin, the “potency against α5β1 integrin in cell adhesion assay (in words)” value is recorded as “sub-micromolar IC50”.

`N=C(N)Nc1cccc(C(=O)NCC(=O)NC[C@H](NC(=O)[C@@H]2CCCN2S(=O)(=O)c2ccccc2)C(=O)O)c1` [Compound 11]: the “selectivity against αvβ3 integrin” value at αvβ3 integrin was “not still satisfactory”. In addition, the “improvement of potency against α5β1 integrin” value on α5β1 integrin is “more than 10 fold”.
